“Also recorded” adds a separate entry of the source.
Columns and labels:
[1] = test system: sil1-1D mutant; assay: Germination efficiency under paclobutrazol treatment, sil1-1D mutant; format: in vivo, Arabidopsis thaliana; details: FIG. 10
From the text: (§1) It is generally known that GA is involved in germination as well as hypocotyl growth as shown in Example 5. Hypocotyl growth or adult heights are associated with cell elongation. Typically, GA, auxin and brassinosteroid […] are involved in cell elongation while plant hormones such as GA and ABA are responsible for germination. As for the response to GA, its molecular mechanisms are different for different phenomena. Thus, in order to support the fact that the delayed flowering and/or dwarfism phenotype is attributed to the deficient response of sil1-1D to GA, the wild-type (Col) and sil1-1D were treated with paclobutrazol (PAC), which inhibits the biosynthesis of GA, and their germination efficiencies were compared. […] Generally, when GA biosynthesis was inhibited by PAC, germination efficiency was lowered, with a lowered response to GA.

[2] = test system: Arabidopsis thaliana wild-type (Col); assay: Germination efficiency under paclobutrazol treatment, wild-type; format: in vivo; details: FIG. 10
From the text: as §1

[3] = test system: sil1-1D mutant; assay: Hypocotyl length response to GA, sil1-1D mutant; format: in vivo, Arabidopsis thaliana; details: various concentrations of GA, white light, compared to wild-type, FIG. 9
Procedure: (§2) In most cases, these phenomena occur when the plant becomes low in GA response or GA biosynthesis level. Thus, the response of sil1-1D to GA was examined. In this regard, hypocotyl lengths of 15 plantlets were measured after they were grown in ½ Gamborg B5 media (Duchefa) containing 1% sucrose and various concentrations of GA under white light.

[4] = test system: Arabidopsis thaliana wild-type (Col); assay: Hypocotyl length response to GA, wild-type; format: in vivo; details: various concentrations of GA, white light, FIG. 9
Procedure: as §2

Row | Molecule | germination ([1]; 0.35 mg/L PAC) | germination efficiency ([1]; increasing PAC concentration) | germination ([2]; wild-type (Col), 0.35 mg/L PAC) [%] | germination efficiency ([2]; wild-type, increasing PAC concentration) | hypocotyl growth [3] | hypocotyl growth [4]
1 | CC(C)(C)[C@@H](O)[C@@H](Cc1ccc(Cl)cc1)n1cncn1 (racemic) [PAC, paclobutrazol] | about 50% | decreased with increasing of PAC concentration | ~100 | decreased with increasing of PAC concentration |  | 
2 | gibberellin [GA] |  |  |  |  | short hypocotyls in response to GA; also recorded: significantly reduced | increased with increasing of GA concentration
